Data on 24 molecules can be found in patent US20230399312A1, “SUBSTITUTED PYRIMIDINES AND METHODS OF USE” (THERAVANCE BIOPHARMA R&D IP, LLC, priority 2020, published 2023).

Assay [1] addresses T1, recombinant human ALK5 (TGF-βR1) protein (Homo sapiens, UniProt P36897).
T1 construct: purchased Life Technologies PR9075A
T1 sequence (P36897 34-503): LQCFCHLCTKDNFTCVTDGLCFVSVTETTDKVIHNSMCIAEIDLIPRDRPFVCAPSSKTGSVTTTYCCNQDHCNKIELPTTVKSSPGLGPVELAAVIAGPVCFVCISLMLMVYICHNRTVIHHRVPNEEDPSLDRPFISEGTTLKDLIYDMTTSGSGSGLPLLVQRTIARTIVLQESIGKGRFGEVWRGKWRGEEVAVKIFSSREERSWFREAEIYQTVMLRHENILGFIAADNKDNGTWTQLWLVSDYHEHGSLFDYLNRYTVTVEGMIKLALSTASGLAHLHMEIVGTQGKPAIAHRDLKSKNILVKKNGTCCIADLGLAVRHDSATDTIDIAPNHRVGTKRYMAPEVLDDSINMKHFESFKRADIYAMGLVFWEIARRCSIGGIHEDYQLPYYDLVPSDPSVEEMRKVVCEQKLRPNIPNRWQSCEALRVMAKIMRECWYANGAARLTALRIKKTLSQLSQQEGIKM
Nature of the assay: Biochemical ALK5 (TGF-βR1) assay to measure pKi (LANCE Ultra ULight kinase assay). The note with it: apparent pKi, converted from pIC50 by Cheng-Prusoff. The method in brief:
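Europium TR-FRET kinase assay: the enzyme is exposed to compound for 60 min at room temperature, and reaction with ATP runs 60 min at 37 °C. Percent inhibition relative to DMSO and SD-208 controls gives pIC50, which is converted to pKi.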

Assay [2] relates to TGF-β-stimulated SMAD3 phosphorylation in BEAS-2B cells. Nature of the assay: Cellular ALK5 potency assay, inhibition of TGF-β stimulated pSMAD3 formation in BEAS-2B cells. In kind it is cell-based. Conditions: Homo sapiens, pSMAD3, TGF-β 10 ng/mL, read-out: BEAS2B pIC50 (converted). The method in brief: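 BEAS-2B cells, HBSS/25 mM HEPES/1% BSA buffer; cpd 1 h, 37 °C; TGF-β 10 ng/mL final, 30 min; lysis, AlphaLISA pSMAD3 read next day. pIC50 vs stimulated no-compound baseline.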

Structures are written as SMILES.

Regarding `Cc1cccc(-c2nccc(Nc3ccnc(Nc4ncc(N5C[C@@H](C)N[C@@H](C)C5)s4)n3)n2)n1` [Compound 604, N2-[5-[(3R,5S)-3,5-dimethylpiperazin-1-yl]thiazol-2-yl]-N4-[2-(6-methyl-2-pyridyl)pyrimidin-4-yl]pyrimidine-2,4-diamine], in assay [1], the Ki is 3.98 to 31.6 nM. In assay [2], the IC50 was 200 to 1260 nM.

For the molecule `Cc1cccc(-c2nccc(Nc3ccnc(Nc4ccc(CC5CNC5)cc4)n3)n2)n1` [Compound 280, N2-[4-(azetidin-3-ylmethyl)phenyl]-N4-[2-(6-methyl-2-pyridyl)pyrimidin-4-yl]pyrimidine-2,4-diamine], the Ki in assay [1] is 0.0398 to 0.316 nM. Also, the IC50 in assay [2] was 25.1 to 158 nM.

For `Cc1cccc(-c2nccc(Nc3ccnc(Nc4csc(C(=O)O[C@H]5CC[C@](C)(N)CC5)c4)n3)n2)n1` [Compound 572, (4-amino-4-methyl-cyclohexyl) 4-[[4-[[2-(6-methyl-2-pyridyl)pyrimidin-4-yl]amino]pyrimidin-2-yl]amino]thiophene-2-carboxylate], in assay [1], the Ki is 0.0398 to 0.316 nM. Moreover, the IC50 in assay [2] was 25.1 to 158 nM.

Regarding `Cc1cccc(-c2nccc(Nc3ccnc(Nc4cccc(C(=O)OC5CNC5)c4)n3)n2)n1` [Compound 260, azetidin-3-yl 3-[[4-[[2-(6-methyl-2-pyridyl)pyrimidin-4-yl]amino]pyrimidin-2-yl]amino]benzoate], in assay [1], the Ki was 0.0398 to 0.316 nM. In addition, the IC50 in assay [2] was 25.1 to 158 nM.

On to `Cc1cccc(-c2nccc(Nc3ccnc(Nc4csc(C(=O)O[C@H]5CCN(C)C5)c4)n3)n2)n1` [Compound 217, [(3S)-1-methylpyrrolidin-3-yl] 4-[[4-[[2-(6-methyl-2-pyridyl)pyrimidin-4-yl]amino]pyrimidin-2-yl]amino]thiophene-2-carboxylate], for which the Ki in assay [1] is 0.0398 to 0.316 nM. Further, the IC50 in assay [2] was 25.1 to 158 nM.

As to `Cc1cccc(-c2nccc(Nc3ccnc(Nc4ccc(CN5CCN[C@@H](CO)C5)cc4)n3)n2)n1` [Compound 183, [(2R)-4-[[4-[[4-[[2-(6-methyl-2-pyridyl)pyrimidin-4-yl]amino]pyrimidin-2-yl]amino]phenyl]methyl]piperazin-2-yl]methanol], the Ki in assay [1] was 0.0398 to 0.316 nM. Further, in assay [2], the IC50 is 25.1 to 158 nM.

For the molecule `CNCc1ccc(Nc2nccc(Nc3ccnc(-c4cccc(C)n4)n3)n2)cc1` [Compound 503, N2-[4-(methylaminomethyl)phenyl]-N4-[2-(6-methyl-2-pyridyl)pyrimidin-4-yl]pyrimidine-2,4-diamine], the Ki in assay [1] is not above 0.0316 nM. In addition, in assay [2], the IC50 is 25.1 to 158 nM.

Regarding `Cc1cccc(-c2nccc(Nc3ccnc(Nc4ccc(CN5CCN[C@H](C(=O)O)C5)cc4)n3)n2)n1` [Compound 283, (2S)-4-[[4-[[4-[[2-(6-methyl-2-pyridyl)pyrimidin-4-yl]amino]pyrimidin-2-yl]amino]phenyl]methyl] piperazine-2-carboxylic acid], the Ki in assay [1] was 0.0398 to 0.316 nM. For the same molecule, the IC50 in assay [2] is 200 to 1260 nM.

With `Cc1cccc(-c2nccc(Nc3ccnc(Nc4cc(C(=O)OC5CNC5)ccn4)n3)n2)n1` [Compound 579, azetidin-3-yl 2-[[4-[[2-(6-methyl-2-pyridyl)pyrimidin-4-yl]amino]pyrimidin-2-yl]amino]pyridine-4-carboxylate], the Ki in assay [1] was 3.98 to 31.6 nM. In assay [2], the IC50 is 25.1 to 158 nM.

`Cc1cccc(-c2nccc(Nc3ccnc(Nc4cc(C(=O)OCC5CNC5)cs4)n3)n2)n1` [Compound 142, azetidin-3-ylmethyl 5-((4-((2-(6-methylpyridin-2-yl)pyrimidin-4-yl)amino)pyrimidin-2-yl)amino)thiophene-3-carboxylate]: in assay [1], the Ki was 0.0398 to 0.316 nM. Moreover, in assay [2], the IC50 was 25.1 to 158 nM.

On to `Cc1cccc(-c2nccc(Nc3ccnc(Nc4ccc(N5CCCC(C(=O)O)C5)cc4)n3)n2)n1` (stereo not drawn) [Compound 454, 1-[4-[[4-[[2-(6-methyl-2-pyridyl)pyrimidin-4-yl]amino]pyrimidin-2-yl]amino]phenyl]piperidine-3-carboxylic acid], for which, in assay [1], the Ki is 0.0398 to 0.316 nM. Further, the IC50 in assay [2] was 200 to 1260 nM.

Consider `Cc1cccc(-c2nccc(Nc3ccnc(Nc4nc(C(=O)OC5CCNCC5)cs4)n3)n2)n1` [Compound 148, piperidin-4-yl 2-((4-((2-(6-methylpyridin-2-yl)pyrimidin-4-yl)amino)pyrimidin-2-yl)amino)thiazole-4-carboxylate], for which the Ki in assay [1] is 0.398 to 3.16 nM. Also, the IC50 in assay [2] is 25.1 to 158 nM.

On to `Cc1cccc(-c2nccc(Nc3ccnc(Nc4nc(C(=O)OC[C@@H]5CCNC5)cs4)n3)n2)n1` [Compound 611, [(3R)-pyrrolidin-3-yl]methyl 2-[[4-[[2-(6-methyl-2-pyridyl)pyrimidin-4-yl]amino]pyrimidin-2-yl]amino]thiazole-4-carboxylate], for which the Ki in assay [1] was 0.398 to 3.16 nM. Moreover, in assay [2], the IC50 is 200 to 1260 nM.

Regarding `Cc1cccc(-c2nccc(Nc3ccnc(Nc4cc(C(=O)OC5CNC5)cs4)n3)n2)n1` [Compound 207, azetidin-3-yl 5-[[4-[[2-(6-methyl-2-pyridyl)pyrimidin-4-yl]amino]pyrimidin-2-yl]amino]thiophene-3-carboxylate], the Ki in assay [1] was 0.0398 to 0.316 nM. In assay [2], the IC50 is 25.1 to 158 nM.

Take `Cc1cccc(-c2nccc(Nc3ccnc(Nc4ccc(N5C[C@@H](C)N[C@@H](C)C5)cc4)n3)n2)n1` [Compound 143, N4-[2-(6-methyl-2-pyridyl)pyrimidin-4-yl]-N2-[4-[rac-(3S,5R)-3,5-dimethylpiperazin-1-yl]phenyl]pyrimidine-2,4-diamine]: in assay [1], the Ki was 0.0398 to 0.316 nM. Besides, in assay [2], the IC50 is 25.1 to 158 nM.

Take `COC(=O)C1CN(CCNc2ccc(Nc3nccc(Nc4ccnc(-c5cccc(C)n5)n4)n3)cc2)CCN1C` (stereo not drawn) [Compound 236, methyl 1-methyl-4-[2-[4-[[4-[[2-(6-methyl-2-pyridyl)pyrimidin-4-yl]amino]pyrimidin-2-yl]amino]anilino]ethyl] piperazine-2-carboxylate]: the Ki in assay [1] is 0.398 to 3.16 nM. Besides, the IC50 in assay [2] was 25.1 to 158 nM.

Regarding `Cc1cccc(-c2nc(Nc3ccnc(Nc4ccc(NCC5CNC5)cc4)n3)c3cccn3n2)n1` [Compound 1016, N2-[4-(azetidin-3-ylmethylamino)phenyl]-N4-[2-(6-methyl-2-pyridyl)pyrrolo[2,1-f][1,2,4]triazin-4-yl]pyrimidine-2,4-diamine], the Ki in assay [1] was 0.0398 to 0.316 nM. In addition, the IC50 in assay [2] was 25.1 to 158 nM.

Regarding `CN(C)C1CCN(c2ccc(Nc3nccc(Nc4ccnc(-c5cc(Cl)ccc5F)n4)n3)cc2)CC1` [Compound 415, N4-[2-(5-chloro-2-fluoro-phenyl)pyrimidin-4-yl]-N2-[4-[4-(dimethylamino)-1-piperidyl]phenyl]pyrimidine-2,4-diamine], the Ki in assay [1] was 0.0398 to 0.316 nM. For the same molecule, the IC50 in assay [2] was 25.1 to 158 nM.

Turning to `Cc1cccc(-c2nccc(Nc3ccnc(Nc4ccc(CN5CCC[C@H](C(=O)O)C5)cc4)n3)n2)n1` [Compound 224, (3S)-1-[[4-[[4-[[2-(6-methyl-2-pyridyl)pyrimidin-4-yl]amino]pyrimidin-2-yl]amino]phenyl]methyl] piperidine-3-carboxylic acid], the Ki in assay [1] was 0.0398 to 0.316 nM. Also, in assay [2], the IC50 was 200 to 1260 nM.

Take `Cc1cccc(-c2nccc(Nc3ccnc(Nc4ccc(CN5CCN6CCCC6C5)cc4)n3)n2)n1` (stereo not drawn) [Compound 129, N2-[4-(3,4,6,7,8,8a-hexahydro-1H-pyrrolo[1,2-a]pyrazin-2-ylmethyl)phenyl]-N4-[2-(6-methyl-2-pyridyl)pyrimidin-4-yl]pyrimidine-2,4-diamine]: the Ki in assay [1] is 0.0398 to 0.316 nM. Moreover, in assay [2], the IC50 was 25.1 to 158 nM.

As to `Cc1cccc(-c2nccc(Nc3ccnc(Nc4cc(C(=O)OC5CCNCC5)ccn4)n3)n2)n1` [Compound 633, 4-piperidyl 2-[[4-[[2-(6-methyl-2-pyridyl)pyrimidin-4-yl]amino]pyrimidin-2-yl]amino]pyridine-4-carboxylate], the Ki in assay [1] is 3.98 to 31.6 nM. The IC50 in assay [2] was 200 to 1260 nM.

Turning to `Cc1cccc(-c2nccc(Nc3ccnc(Nc4ncc(C(=O)OC5CNC5)s4)n3)n2)n1` [Compound 325, azetidin-3-yl 2-[[4-[[2-(6-methyl-2-pyridyl)pyrimidin-4-yl]amino]pyrimidin-2-yl]amino]thiazole-5-carboxylate], the Ki in assay [1] is 3.98 to 31.6 nM. Further, in assay [2], the IC50 was 25.1 to 158 nM.

For `Cc1cccc(-c2nccc(Nc3ccnc(Nc4cccc(NC(=O)C5(O)CNC5)c4)n3)n2)n1` [Compound 299, 3-hydroxy-N-[3-[[4-[[2-(6-methyl-2-pyridyl)pyrimidin-4-yl]amino]pyrimidin-2-yl]amino]phenyl]azetidine-3-carboxamide], in assay [1], the Ki was 0.0398 to 0.316 nM. Moreover, in assay [2], the IC50 was 25.1 to 158 nM.

For `Cc1cccc(-c2nccc(Nc3ccnc(Nc4ccc(N5CC(CN)C5)cc4)n3)n2)n1` [Compound 186, N2-[4-[3-(aminomethyl)azetidin-1-yl]phenyl]-N4-[2-(6-methyl-2-pyridyl)pyrimidin-4-yl]pyrimidine-2,4-diamine], the Ki in assay [1] is 0.0398 to 0.316 nM. Moreover, the IC50 in assay [2] was 25.1 to 158 nM.
